The subject of one assay is sedge, umbrella. Put plainly: Test B flooded paddy test. Conditions: Cyperus difformis, 360 h, 125 g ai/ha, applied to paddy water at 2-leaf stage, visual rating after 13 to 15 d, scale 0 (no effect) to 100 (complete control), read-out: Plant response rating, Sedge, Umbrella, Flood. In kind it is in vivo, Cyperus difformis. The method, boiled down: (§1)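 Pots were flooded to 3 cm above the soil at treatment, and compounds were applied directly into the paddy water. That depth was held throughout. After 13 to 15 d in a greenhouse, plants were rated visually against untreated controls.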

Assay [1] relates to barnyardgrass. Put plainly: Test B flooded paddy test. It counts as in vivo, Echinochloa crus-galli. Conditions: Echinochloa crus-galli, 360 h, 125 g ai/ha, applied to paddy water at 2-leaf stage, visual rating after 13 to 15 d, scale 0 (no effect) to 100 (complete control), read-out: Plant response rating, Barnyardgrass, Flood. The method, boiled down: as §1
For another assay, the system named is wheat. Put plainly: Test A postemergence. It counts as in vivo, Triticum aestivum. The following applies: Triticum aestivum, post-emergence, 240 h, 0 to 100 scale (0 no effect, 100 complete control), approx. 10 d, read-out: Plant response rating, Wheat; for plant injury at 125 g/ha: 125 g ai/ha; for plant injury at 500 g/ha: 500 g ai/ha. The method, boiled down: (§2)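 Plant seeds in loam soil blended with sand, then apply test chemical preemergence as a directed soil spray; in parallel, spray potted seedlings (one- to two-leaf, 2 to 10 cm) postemergence. Both treatments use a non-phytotoxic solvent mixture with surfactant.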

In a further assay the test system is corn. Kind of assay: Test A postemergence. The following applies: Zea mays, post-emergence, 240 h, 0 to 100 scale (0 no effect, 100 complete control), approx. 10 d; for Corn plant response rating (crop injury, 0 = no effect, 100 = complete kill) at 125 g/ha: 125 g ai/ha; for Corn plant response rating (crop injury, 0 = no effect, 100 = complete kill) at 500 g/ha: 500 g ai/ha. It counts as in vivo, Zea mays. The method, boiled down:
as §2

In assay [2] the test system is barnyardgrass. Kind of assay: Test A postemergence. It counts as in vivo, Echinochloa crus-galli. The following applies: Echinochloa crus-galli, post-emergence, 240 h, 0 to 100 scale (0 no effect, 100 complete control), approx. 10 d, read-out: Plant response rating, Barnyardgrass; for pest or weed control at 125 g/ha: 125 g ai/ha; for pest or weed control at 500 g/ha: 500 g ai/ha. The method, boiled down: as §2

The next assay has as its system rice. Kind of assay: Test B flooded paddy test. It counts as in vivo, Oryza sativa. Conditions: Oryza sativa, 360 h, 125 g ai/ha, applied to paddy water at 2-leaf stage, visual rating after 13 to 15 d, scale 0 (no effect) to 100 (complete control), read-out: Plant response rating, Rice, Flood. The method, boiled down: as §1
The subject of assay [3] is barnyardgrass. Kind of assay: Test A preemergence. In kind it is in vivo, Echinochloa crus-galli. The following applies: Echinochloa crus-galli, pre-emergence, 240 h, 0 to 100 scale (0 no effect, 100 complete control), read-out: Plant response rating, Barnyardgrass; for pest or weed control at 125 g/ha: 125 g ai/ha; for pest or weed control at 500 g/ha: 500 g ai/ha, approx. 10 d. The method, boiled down: as §2

`Cn1nc(-c2ccc(F)cc2)nc1C(O)c1ccnc(C(F)(F)F)c1` (stereo not drawn) [Compound 14, α-[3-(4-fluorophenyl)-1-methyl-1H-1,2,4-triazol-5-yl]-2-(trifluoromethyl)-4-pyridinemethanol]: the pest or weed control at 125 g/ha in the assay on sedge, umbrella worked out at 0%; in the assay with barnyardgrass [1], 0%; in the assay on barnyardgrass [2], 10%; in the assay with barnyardgrass [3], 0%. The results for the plant injury at 125 g/ha with wheat and in the assay on rice were 10% and 0%, respectively. Moreover, in the assay with wheat, the plant injury at 500 g/ha was found to be 30%. This compound yielded a Corn plant response rating (crop injury, 0 = no effect, 100 = complete kill) at 125 g/ha in the assay on corn of 10%. In addition, in the assay on corn, the Corn plant response rating (crop injury, 0 = no effect, 100 = complete kill) at 500 g/ha is 20%. The pest or weed control at 500 g/ha in the assay with barnyardgrass [2] stood at 20%; in the assay with barnyardgrass [3] it was 10%.

As to `CCn1nc(-c2ccc(F)cc2)nc1C(=O)c1ccnc(C(F)(F)F)c1` [Compound 19, [1-ethyl-3-(4-fluorophenyl)-1H-1,2,4-triazol-5-yl][2-(trifluoromethyl)-4-pyridinyl]methanone], the pest or weed control at 125 g/ha is 0% in the assay on sedge, umbrella; 0% in the assay with barnyardgrass [1]; 0% with barnyardgrass [2]; 0% with barnyardgrass [3]. For the same compound, the plant injury at 125 g/ha with wheat and in the assay on rice was 0% throughout. The plant injury at 500 g/ha with wheat worked out at 0%. Also, the Corn plant response rating (crop injury, 0 = no effect, 100 = complete kill) at 125 g/ha in the assay with corn amounted to 0%. In the assay on corn, the Corn plant response rating (crop injury, 0 = no effect, 100 = complete kill) at 500 g/ha is 20%. Also, the pest or weed control at 500 g/ha in the assay with barnyardgrass [2] and in the assay on barnyardgrass [3] was 0% each time.

On to `CS(=O)(=O)c1nc(-c2ccc(F)cc2)nn1Cc1ccnc(C(F)(F)F)c1` [Compound 29, 4-[[3-(4-fluorophenyl)-5-(methylsulfonyl)-1H-1,2,4-triazole-1-yl]methyl]-2-(trifluoromethyl)pyridine], for which the pest or weed control at 125 g/ha with sedge, umbrella was 0%; in the assay with barnyardgrass [1] it was 0%; with barnyardgrass [2], 0%; in the assay on barnyardgrass [3] it was 0%. Further, the plant injury at 125 g/ha with wheat and in the assay on rice was 0% throughout. For the same compound, in the assay with wheat, the plant injury at 500 g/ha turned out to be 0%. For the same compound, the Corn plant response rating (crop injury, 0 = no effect, 100 = complete kill) at 125 g/ha in the assay with corn was 0%. In the assay with corn, the Corn plant response rating (crop injury, 0 = no effect, 100 = complete kill) at 500 g/ha came out at 0%. Further, the pest or weed control at 500 g/ha with barnyardgrass [2] and in the assay on barnyardgrass [3] was 0% throughout.

For the compound `CCCn1nc(-c2ccc(F)cc2)nc1Cc1ccnc(C(F)(F)F)c1` [Compound 17, 4-[[3-(4-fluorophenyl)-1-propyl-1H-1,2,4-triazol-5-yl]methyl]-2-(trifluoromethyl)pyridine], the pest or weed control at 125 g/ha in the assay on sedge, umbrella is 80%; in the assay on barnyardgrass [1], 10%; with barnyardgrass [2], 70%; with barnyardgrass [3] it was 50%. The plant injury at 125 g/ha in the assay with wheat came out at 60%; in the assay with rice it was 15%. Further, the plant injury at 500 g/ha in the assay on wheat was determined as 80%. In the assay on corn, this compound had a Corn plant response rating (crop injury, 0 = no effect, 100 = complete kill) at 125 g/ha of 50%. For the same compound, in the assay on corn, the Corn plant response rating (crop injury, 0 = no effect, 100 = complete kill) at 500 g/ha was 70%. For the same compound, the figures for the pest or weed control at 500 g/ha in the assay with barnyardgrass [2] and in the assay with barnyardgrass [3] were 90% and 100%, respectively.

With `CCn1nc(-c2ccc(F)cc2)nc1C(O)c1ccnc(C(F)(F)F)c1` (stereo not drawn) [Compound 15, α-[1-Ethyl-3-(4-fluorophenyl)-1H-1,2,4-triazol-5-yl]-2-(trifluoromethyl)-4-pyridinemethanol], the pest or weed control at 125 g/ha in the assay with sedge, umbrella is 0%; in the assay on barnyardgrass [1], 0%; with barnyardgrass [2] it was 0%; in the assay on barnyardgrass [3], 0%. Further, the plant injury at 125 g/ha in the assay on wheat and with rice was 0% in each case. In addition, the plant injury at 500 g/ha with wheat worked out at 0%. The Corn plant response rating (crop injury, 0 = no effect, 100 = complete kill) at 125 g/ha in the assay on corn worked out at 0%. The compound also gave a Corn plant response rating (crop injury, 0 = no effect, 100 = complete kill) at 500 g/ha in the assay with corn of 10%. For the same compound, the pest or weed control at 500 g/ha was determined as 10% in the assay with barnyardgrass [2] and 0% in the assay on barnyardgrass [3].

Values taken from patent publication US10681909B2, “Herbicidal triazoles” (FMC Corporation, priority 2014, dated 2020).
